One series deals with T1, Human recombinant sEH (Homo sapiens, UniProt P34913).
T1 sequence (P34913 1-555): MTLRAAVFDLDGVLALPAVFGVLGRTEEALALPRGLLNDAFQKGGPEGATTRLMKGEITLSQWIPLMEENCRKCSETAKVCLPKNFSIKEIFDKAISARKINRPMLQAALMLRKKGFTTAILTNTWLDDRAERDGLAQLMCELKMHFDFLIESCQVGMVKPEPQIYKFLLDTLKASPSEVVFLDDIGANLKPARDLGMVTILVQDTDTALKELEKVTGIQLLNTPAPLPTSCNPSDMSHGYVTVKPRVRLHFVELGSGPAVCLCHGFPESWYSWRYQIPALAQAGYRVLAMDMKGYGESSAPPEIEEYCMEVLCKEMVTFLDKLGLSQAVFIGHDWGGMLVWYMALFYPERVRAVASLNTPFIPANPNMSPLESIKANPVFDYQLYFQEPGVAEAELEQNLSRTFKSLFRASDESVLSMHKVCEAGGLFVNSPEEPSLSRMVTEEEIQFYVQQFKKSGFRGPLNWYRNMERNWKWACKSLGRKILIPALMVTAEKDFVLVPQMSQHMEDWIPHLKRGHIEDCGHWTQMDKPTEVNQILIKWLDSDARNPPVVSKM
The series is described as follows: LC-BCD/MS. The class given is biochemical. The settings on record: mixture of sEHi 6, sEHi 1, sEHi 7, diclofenac and phenylbutazone separated by LC.

Series [1] can be described thus: Solubility of PHOME in assay buffer. The class given is physicochemical. The settings on record: BIS–TRIS buffer with 0.1 g/L Tween 80, in the superloop.

With `CCCCC1C(=O)N(c2ccccc2)N(c2ccccc2)C1=O` [phenylbutazone], at Human recombinant sEH, the “sEH activity (BCD peak) in a standard mixture” value was “without sEH activity”.

As to `COc1ccc2cc(C(C#N)OC(=O)CC3OC3c3ccccc3)ccc2c1` (centres unmarked) [PHOME, (3-phenyl-oxiranyl)-acetic acid cyano-(6-methoxy-naphthalen-2-yl)-methyl ester], in series [1], the limit of solubility is roughly 30 µM.

(Values after PMC3601784 (Chromatographia, 2012).)
